Test results taken from a melting point compilation (Tetko et al.; mined from patent text by program, amines drawn as free bases though some values may be those of a salt).

SMILES	melting point [°C]
CC(C)(Br)C(=O)OCCN1C(=O)c2ccccc2C1=O	63 to 65
CN(C)C(=O)OC1c2ccccc2C(=O)N1c1ccc2ccc(Cl)nc2n1 (stereo not given)	217 to 218
CCN1c2nc(Cl)ccc2NC(=O)c2cc(CCc3cccc(NS(C)(=O)=O)c3)cnc21	131 to 132
Nc1cc2[nH]c(=O)oc2cc1N	> 360
O=C(c1ccncc1)c1cnc2cc(Cl)ccc2c1Cl	132
CC1CCNC(=C2C(=O)CC(C(C)C)CC2=O)N1 (stereo not given)	71 to 83
CC(Cl)(Cl)C(=O)NC(=O)C(N)=O	110
CCOC(=O)c1cc(-c2csc(-c3ccnc(NC)c3)n2)c(=O)[nH]c1C(C)C	> 230
CCOC(=O)c1c(CCl)nc2sc3c(c2c1-c1ccc(OC)c(OC)c1)CCN(C(=O)c1ccc(Cl)cc1)C3	132 to 133
CC(C)(C(=O)O)c1cn2nc(CCCCN3CCN(C(c4ccccc4)c4ccccc4)CC3)ccc2n1	108 to 110
Clc1ccccc1-c1n[nH]cc1Br	80
COc1ccc2nc(CC(C)C)c(CN)c(-c3ccccc3)c2c1	73 to 76
CCCCC1(C2CCCC2)Cc2cc(OCC(=O)O)c(Cl)c(Cl)c2C1=O (stereo not given)	173 to 174
O=C(c1ccco1)N1CCN(c2nc3c(c(-c4ccc(F)cc4)n2)CCC3)CC1	124 to 125
CC(C)c1nn(-c2ccc(C(F)(F)F)cn2)cc1CCCOc1cc(CCC(=O)O)n(C)n1	131 to 132
O=C(NC/C=C/c1ccccc1)c1ccoc1	115
CC(=O)Nc1ccc2c3c(cccc13)S(=O)(=O)N2CCCN1CC=C(c2ccccc2)CC1	178
CCCc1ccc2oc(Cc3ccc(OC)cc3)c(C)c2c1O	83 to 96
NCC(=O)Nc1ccc(S(=O)(=O)c2cccc(Cl)c2)cc1	195 to 196
COC(=O)c1ccc(OC)c(O)c1O	100 to 101

SMILES	melting point [°C]
CN1CCN(C(=O)OC2c3cc(Cl)ccc3C(=O)N2c2ccc3ccc(Cl)nc3n2)CC1 (stereo not given)	280
C[C@@H](n1cnc2cccc(F)c2c1=O)[C@](O)(Cn1cncn1)c1ccc(F)cc1F	94 to 122
CC(=O)C1CC2CCC1(COC(=O)Oc1ccccc1)CC2 (stereo not given)	74 to 75
COCCCn1c(CO)c(Cl)c2c3c(c(-c4ccccc4Cl)cc21)C(=O)NC3=O	214 to 215
CN(C)Cc1c[nH]c2c(F)cccc12	133 to 137
Cc1cc(-c2ccccc2)nc2c1ccn2-c1ccc(C(C)C)cc1Br	95.8
CC(=O)C1CC(c2ccccc2)CCC1=O (stereo not given)	53 to 54
CCCCCCC(C)(C)c1ccc(C2=CCCNC2)c(O)c1	122 to 123
CC1CCC(=NN)c2ncc(C(N)=O)c(=O)n21 (stereo not given)	248 to 250
COC[C@H]1CN(c2ccc([C@H]3CC[C@H](OCC#N)CC3)cc2)C(=O)O1	43 to 45
c1cc(Cc2nnn[nH]2)cc(OCc2ncc3ccccc3n2)c1	129 to 131
CN(C)c1ccc(S(=O)(=O)N2CCCCC2=O)cc1	165 to 170
CCCCCCOc1ccc(CCC(=O)OC2CCC3C4CCC5=CC(=O)CCC5C4CCC23C)cc1 (stereo not given)	52 to 53
CCCCc1ccc2c(c1)CC(C(=O)OCC)=NN2	150 to 152
CN1CCC2(C)c3cc(O)cc([N+](=O)[O-])c3N(C)C12 (stereo not given)	170 to 171
Cn1nc2cccc(Cl)c2c1S(N)(=O)=O	173 to 175
COc1ccc(C(=O)NCCCC(=O)O)cc1OCc1ccccc1	156 to 158
OC1(c2ccc(OCc3ccccc3)c(OCc3ccccc3)c2)CCCN(Cc2ccccc2)C1 (stereo not given)	80
O=C(Nc1n[nH]c(=S)s1)N[C@@H](Cc1ccccc1)C(=O)N1CCN(c2ncccn2)CC1	235 to 237

Now from value to compound:

melting point [°C]	SMILES
40 to 42	CCCCCCSc1ccc(SCCCCCC)c(C(=O)O)n1
80	O=C1CC(c2ccccc2)c2cccc(O)c21 (stereo not given)
80 to 85	C=CCc1c(OCC(=O)O)ccc2c(CCc3nc(-c4ccc(Cl)cc4Cl)oc3C(C)C)noc12
98 to 99	CCOC(=O)C(C)(NC(=O)CNC=O)C(=O)OCC
165 to 166	CN(C)C(=O)N1CCc2ccc(S(=O)(=O)NC(=O)NCC3CCCC3)cc2CC1
170 to 172	O=C(O)c1ccccc1NCCCN1c2ccccc2CCc2ccccc21
155 to 158	CC(C)CCn1cc([N+](=O)[O-])cc1C(=O)Nc1cc(C(=O)NCCCN2CCOCC2)n(C)c1
122 to 133	Cn1cc(C(=O)C(=O)Cl)c2ccccc21
> 240	COc1ccc(-c2ccc(COc3cc4c(cc3CCN(CCCCC(=O)O)Cc3ccc(C(=O)O)cc3)CCCC4)cc2)cc1
286 to 293	CCCn1cc2c(C3C(=O)Nc4ccc(Br)cc43)nc(NCC3CCCN3)nc2n1 (stereo not given)
139 to 140	COC(=O)COc1cccc2c(CNC(C)=O)coc12
60	CCCCC[C@H]1CC[C@H](COc2ccc(C(=O)C(F)(F)F)cc2)CC1
90 to 92	CC(C)NC(=O)C(C)(F)c1ccc(OS(=O)(=O)C(F)(F)F)cc1 (stereo not given)
126 to 128	CC(C)=NNc1ccc(OCC(C)(C)NCC(O)COc2ccccc2C#N)nn1 (stereo not given)
130 to 132	COC(=O)CCc1cc2cc(C(F)(F)F)ccc2n1S(=O)(=O)c1ccc2ncsc2c1
108	CCOC(=O)C1=C(C)NC(C)=C(C(=O)OCCOC)C1c1cccc([N+](=O)[O-])c1 (stereo not given)
167 to 169	O=C(O)CN1CC2(CCCCC2)N(c2ccccc2)CC1=O
81	Cc1cn(C2CC(ON)C(CO)O2)c(=O)[nH]c1=O (stereo not given)

melting point [°C]	SMILES
119 to 120	COC(=O)Cc1c(O)c(C)nn1C
224	COc1ccc(N2CCN(c3ccc(-n4ccn(CC(F)(F)F)c4=O)cc3)CC2)cc1
167 to 168	O=C(O)c1ccccc1Sc1ccc(F)cc1[N+](=O)[O-]
38 to 39	ClCC1OCC(OCc2ccccc2)CO1 (stereo not given)
102 to 104	N#CCC(=O)NCc1ccccc1Cl
59 to 61	COc1ccc(SCc2oc(=O)oc2C)cc1
121 to 122	N#CCCSN1C(=O)COCC1=O
195 to 198	COC(=O)C1Cc2c([nH]c3ccccc23)C(c2cc3ccccc3o2)N1 (stereo not given)
82.4 to 84.1	Cc1cc2c(cc1C=O)C(C)(C)CCC2(C)C
162	CC(C)(C)c1cc(=S)cc(C(C)(C)C)s1
212 to 213	FC(F)(F)c1cccc(Oc2cccc(-c3nnc(Nc4ccc(Cl)c(Cl)c4)s3)c2)c1
166 to 169	CCC(=O)N1CCC(=NO)c2cc(Cl)ccc21
64 to 65	N[C@@H](Cc1ccc(C(F)(F)F)cc1)[C@H](O)c1ccccc1 (racemic)
160	CC(=O)Nc1ccc(NC(=O)c2ccc(O)cc2)cc1
180 to 182	COc1ccc(CNc2cc(C(N)=O)c([N+](=O)[O-])cc2[N+](=O)[O-])cc1Cl
101	NCCCCCc1nc2ccccc2[nH]1
147 to 149	O=CN1CCC(=C2c3ccc(Cl)cc3CCc3cccnc32)CC1
176 to 178	O=C(Nc1cnc(OCCO)c(NC(=O)OCCCl)c1)OCCCl
